Test results from patent US10517889B2, “Modulators of SMAD7 expression” (Ionis Pharmaceuticals, Inc., priority 2017, dated 2019).
Strand notation (5' to 3'): a small letter for the sugar, then the base; units joined by * are phosphorothioate-linked, units joined directly phosphodiester-linked; [ ] holds rarer units or linkages, { } end groups; capitals alone tell only the bases. k = constrained ethyl (cEt); [5mC] = 5-methylcytosine; d = 2'-deoxy (DNA)

Each substance was assayed on human SMAD7 mRNA (assay: Antisense inhibition of human SMAD7 mRNA expression in Hep3B cells by 3-10-3 cEt gapmers, 10,000 nM, electroporation (Example 2)). Details: SMAD7 mRNA, Hep3B cells, 10,000 nM antisense oligonucleotide, electroporation, approximately 24 hours, primer probe set RTS5062, relative to untreated control cells.
Assay type: cell-based
Method in brief: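 Percent inhibition of SMAD7 mRNA, relative to untreated cells, after ~24 h exposure of electroporated Hep3B cells to 10,000 nM cEt gapmer; levels by qRT-PCR, corrected for total RNA.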
For “829718 (antisense k[5mC]*k[5mC]*kA*dG*dT*d[5mC]*dT*d[5mC]*d[5mC]*d[5mC]*dG*dG*dA*kG*kG*k[5mC]) [compound 829718]”, the “% Inhibition” value was 15%. With “829719 (antisense kG*k[5mC]*k[5mC]*dA*dG*dT*d[5mC]*dT*d[5mC]*d[5mC]*d[5mC]*dG*dG*kA*kG*kG) [compound 829719]” the “% Inhibition” value was 15%. In the case of “829720 (antisense kG*k[5mC]*kG*d[5mC]*d[5mC]*dA*dG*dT*d[5mC]*dT*d[5mC]*d[5mC]*d[5mC]*kG*kG*kA) [compound 829720]”, the “% Inhibition” value is reported as 14%. For “829721 (antisense kT*kG*k[5mC]*dG*d[5mC]*d[5mC]*dA*dG*dT*d[5mC]*dT*d[5mC]*d[5mC]*k[5mC]*kG*kG) [compound 829721]”, the “% Inhibition” value was 33%. “829722 (antisense kA*kT*kG*d[5mC]*dG*d[5mC]*d[5mC]*dA*dG*dT*d[5mC]*dT*d[5mC]*k[5mC]*k[5mC]*kG) [compound 829722]” was tested, and the “% Inhibition” value was 38%. With “829723 (antisense kG*k[5mC]*kA*dT*dG*d[5mC]*dG*d[5mC]*d[5mC]*dA*dG*dT*d[5mC]*kT*k[5mC]*k[5mC]) [compound 829723]” the “% Inhibition” value was 54%. With “829724 (antisense kG*kG*k[5mC]*dA*dT*dG*d[5mC]*dG*d[5mC]*d[5mC]*dA*dG*dT*k[5mC]*kT*k[5mC]) [compound 829724]” the “% Inhibition” value was 54%. With “829725 (antisense k[5mC]*k[5mC]*kG*dT*dG*dG*d[5mC]*dA*dT*dG*d[5mC]*dG*d[5mC]*k[5mC]*kA*kG) [compound 829725]” the “% Inhibition” value was 41%. With “829726 (antisense k[5mC]*kT*k[5mC]*d[5mC]*dG*dT*dG*dG*d[5mC]*dA*dT*dG*d[5mC]*kG*k[5mC]*k[5mC]) [compound 829726]” the “% Inhibition” value was 41%. With “829727 (antisense kG*k[5mC]*kT*d[5mC]*d[5mC]*dG*dT*dG*dG*d[5mC]*dA*dT*dG*k[5mC]*kG*k[5mC]) [compound 829727]” the “% Inhibition” value was 35%. With “829728 (antisense kG*kG*k[5mC]*dG*d[5mC]*dA*dG*dG*d[5mC]*dG*dA*d[5mC]*dA*kG*k[5mC]*kA) [compound 829728]” the “% Inhibition” value was 44%. With “829729 (antisense kA*kG*kG*d[5mC]*dG*d[5mC]*dA*dG*dG*d[5mC]*dG*dA*d[5mC]*kA*kG*k[5mC]) [compound 829729]” the “% Inhibition” value was 66%. For “829730 (antisense kG*k[5mC]*kA*dG*dG*d[5mC]*dG*d[5mC]*dA*dG*dG*d[5mC]*dG*kA*k[5mC]*kA) [compound 829730]”, the “% Inhibition” value was 23%. For “829731 (antisense kA*kG*k[5mC]*dA*dG*dG*d[5mC]*dG*d[5mC]*dA*dG*dG*d[5mC]*kG*kA*k[5mC]) [compound 829731]”, the “% Inhibition” value was 50%. For “829732 (antisense k[5mC]*kA*kT*dG*dA*dA*dG*dA*dA*dG*dT*d[5mC]*dG*kG*kG*k[5mC]) [compound 829732]”, the “% Inhibition” value was 40%. “829733 (antisense kA*k[5mC]*k[5mC]*dA*dT*dG*dA*dA*dG*dA*dA*dG*dT*k[5mC]*kG*kG) [compound 829733]” was tested, and the “% Inhibition” value was 54%. For “829735 (antisense k[5mC]*k[5mC]*kT*d[5mC]*d[5mC]*dG*d[5mC]*dA*d[5mC]*dA*d[5mC]*d[5mC]*dA*kT*kG*kA) [compound 829735]”, the “% Inhibition” value was 61%. “829736 (antisense kG*kG*kA*dG*d[5mC]*dG*dA*dA*d[5mC]*dA*dT*dG*dA*k[5mC]*k[5mC]*kT) [compound 829736]” was tested, and the “% Inhibition” value was 41%. In the case of “829737 (antisense kA*kG*kG*dA*dG*d[5mC]*dG*dA*dA*d[5mC]*dA*dT*dG*kA*k[5mC]*k[5mC]) [compound 829737]”, the “% Inhibition” value is reported as 52%. With “829738 (antisense kT*kA*kA*dG*dG*dA*dG*d[5mC]*dG*dA*dA*d[5mC]*dA*kT*kG*kA) [compound 829738]” the “% Inhibition” value was 49%. With “829739 (antisense kT*kG*k[5mC]*dT*dA*dA*dG*dG*dA*dG*d[5mC]*dG*dA*kA*k[5mC]*kA) [compound 829739]” the “% Inhibition” value was 44%. With “829740 (antisense k[5mC]*kT*kG*d[5mC]*dT*dA*dA*dG*dG*dA*dG*d[5mC]*dG*kA*kA*k[5mC]) [compound 829740]” the “% Inhibition” value was 52%. “829741 (antisense k[5mC]*k[5mC]*kG*dG*dA*d[5mC]*dG*dA*dG*d[5mC]*dG*d[5mC]*dA*kG*kA*kT) [compound 829741]” was tested, and the “% Inhibition” value was 32%. “829742 (antisense k[5mC]*kG*k[5mC]*d[5mC]*dG*dG*dA*d[5mC]*dG*dA*dG*d[5mC]*dG*k[5mC]*kA*kG) [compound 829742]” was tested, and the “% Inhibition” value was 43%. With “829743 (antisense kA*k[5mC]*kG*d[5mC]*d[5mC]*dG*dG*dA*d[5mC]*dG*dA*dG*d[5mC]*kG*k[5mC]*kA) [compound 829743]” the “% Inhibition” value was 25%. In the case of “829744 (antisense kA*k[5mC]*kG*dG*d[5mC]*dT*d[5mC]*d[5mC]*dT*d[5mC]*d[5mC]*dA*dG*kA*kG*kA) [compound 829744]”, the “% Inhibition” value is reported as 39%. In the case of “829745 (antisense k[5mC]*kG*kG*dG*d[5mC]*dG*d[5mC]*dA*d[5mC]*dG*dG*d[5mC]*dT*k[5mC]*k[5mC]*kT) [compound 829745]”, the “% Inhibition” value is reported as 19%. In the case of “829746 (antisense k[5mC]*k[5mC]*kG*dG*dG*d[5mC]*dG*d[5mC]*dA*d[5mC]*dG*dG*d[5mC]*kT*k[5mC]*k[5mC]) [compound 829746]”, the “% Inhibition” value is reported as 46%. “829747 (antisense kT*k[5mC]*kG*d[5mC]*d[5mC]*dG*d[5mC]*d[5mC]*dG*dG*dG*d[5mC]*dG*k[5mC]*kA*k[5mC]) [compound 829747]” was tested, and the “% Inhibition” value was 16%. For “829748 (antisense k[5mC]*kT*k[5mC]*dG*d[5mC]*d[5mC]*dG*d[5mC]*d[5mC]*dG*dG*dG*d[5mC]*kG*k[5mC]*kA) [compound 829748]”, the “% Inhibition” value was 43%. For “829749 (antisense kT*k[5mC]*k[5mC]*dT*d[5mC]*dG*d[5mC]*d[5mC]*dG*d[5mC]*d[5mC]*dG*dG*kG*k[5mC]*kG) [compound 829749]”, the “% Inhibition” value was 26%. For “829750 (antisense k[5mC]*kG*kT*d[5mC]*d[5mC]*dT*d[5mC]*dG*d[5mC]*d[5mC]*dG*d[5mC]*d[5mC]*kG*kG*kG) [compound 829750]”, the “% Inhibition” value was 33%. “829751 (antisense kG*k[5mC]*kA*dG*d[5mC]*dT*d[5mC]*dG*d[5mC]*d[5mC]*dT*d[5mC]*d[5mC]*kT*k[5mC]*k[5mC]) [compound 829751]” was tested, and the “% Inhibition” value was 40%. For “829752 (antisense k[5mC]*k[5mC]*kG*d[5mC]*dA*dG*d[5mC]*dT*d[5mC]*dG*d[5mC]*d[5mC]*dT*k[5mC]*k[5mC]*kT) [compound 829752]”, the “% Inhibition” value was 27%. With “829753 (antisense kT*k[5mC]*k[5mC]*d[5mC]*d[5mC]*dG*d[5mC]*dA*dG*d[5mC]*dT*d[5mC]*dG*k[5mC]*k[5mC]*kT) [compound 829753]” the “% Inhibition” value was 29%. With “829754 (antisense kT*k[5mC]*kT*d[5mC]*d[5mC]*d[5mC]*d[5mC]*dG*d[5mC]*dA*dG*d[5mC]*dT*k[5mC]*kG*k[5mC]) [compound 829754]” the “% Inhibition” value was 49%. With “829755 (antisense kT*kT*k[5mC]*dT*d[5mC]*d[5mC]*d[5mC]*d[5mC]*dG*d[5mC]*dA*dG*d[5mC]*kT*k[5mC]*kG) [compound 829755]” the “% Inhibition” value was 52%. In the case of “829756 (antisense k[5mC]*k[5mC]*kG*dT*d[5mC]*dG*d[5mC]*d[5mC]*d[5mC]*d[5mC]*dT*dT*d[5mC]*kT*k[5mC]*k[5mC]) [compound 829756]”, the “% Inhibition” value is reported as 42%. “829757 (antisense k[5mC]*k[5mC]*kG*dG*d[5mC]*d[5mC]*d[5mC]*d[5mC]*dA*dT*dG*d[5mC]*dG*k[5mC]*kT*k[5mC]) [compound 829757]” was tested, and the “% Inhibition” value was 15%. “829758 (antisense k[5mC]*kA*k[5mC]*d[5mC]*dG*dG*d[5mC]*d[5mC]*d[5mC]*d[5mC]*dA*dT*dG*k[5mC]*kG*k[5mC]) [compound 829758]” was tested, and the “% Inhibition” value was 24%. “829759 (antisense k[5mC]*k[5mC]*kG*d[5mC]*d[5mC]*dA*d[5mC]*d[5mC]*dG*dG*d[5mC]*d[5mC]*d[5mC]*k[5mC]*kA*kT) [compound 829759]” was tested, and the “% Inhibition” value was 51%. In the case of “829760 (antisense k[5mC]*k[5mC]*kG*d[5mC]*d[5mC]*dT*dT*dG*d[5mC]*d[5mC]*d[5mC]*dA*dG*kG*k[5mC]*kA) [compound 829760]”, the “% Inhibition” value is reported as 3%. In the case of “829761 (antisense kT*k[5mC]*kA*dG*dA*dT*d[5mC]*d[5mC]*dG*d[5mC]*d[5mC]*dT*d[5mC]*kG*kG*k[5mC]) [compound 829761]”, the “% Inhibition” value is reported as 21%. “829763 (antisense kG*kT*kT*dT*d[5mC]*dT*dT*dG*dA*dG*d[5mC]*dA*d[5mC]*k[5mC]*kG*kA) [compound 829763]” was tested, and the “% Inhibition” value was 65%. With “829764 (antisense k[5mC]*k[5mC]*kG*d[5mC]*dT*d[5mC]*d[5mC]*dT*dT*d[5mC]*dA*dG*dT*kT*kT*k[5mC]) [compound 829764]” the “% Inhibition” value was 44%. With “829765 (antisense kG*k[5mC]*k[5mC]*dG*d[5mC]*dT*d[5mC]*d[5mC]*dT*dT*d[5mC]*dA*dG*kT*kT*kT) [compound 829765]” the “% Inhibition” value was 28%. “829766 (antisense k[5mC]*kT*kG*d[5mC]*d[5mC]*dG*d[5mC]*dT*d[5mC]*d[5mC]*dT*dT*d[5mC]*kA*kG*kT) [compound 829766]” was tested, and the “% Inhibition” value was 32%. “829768 (antisense kG*k[5mC]*kA*dG*dG*dA*dG*dG*d[5mC]*dA*d[5mC]*dG*d[5mC]*kG*kG*kT) [compound 829768]” was tested, and the “% Inhibition” value was 41%. With “829769 (antisense k[5mC]*kA*kG*d[5mC]*dA*dG*dG*dA*dG*dG*d[5mC]*dA*d[5mC]*kG*k[5mC]*kG) [compound 829769]” the “% Inhibition” value was 46%. For “829770 (antisense k[5mC]*kA*kG*dT*d[5mC]*d[5mC]*dA*dG*dG*d[5mC]*dG*dG*d[5mC]*k[5mC]*kG*kG) [compound 829770]”, the “% Inhibition” value was 42%. For “829771 (antisense kG*k[5mC]*kA*dG*dT*d[5mC]*d[5mC]*dA*dG*dG*d[5mC]*dG*dG*k[5mC]*k[5mC]*kG) [compound 829771]”, the “% Inhibition” value was 22%.
